Test [1] is described as follows: Preemergence herbicidal activity (% control) against monocot weeds. Type of test: in vivo. The conditions noted are these: pre-emergence, 336 h, average, about two weeks after application, read-out: Herbicidal activity (% control), preemergence, monocots; for activity at 2241.7 g/ha: 2 lb./A.; for activity at 4483.4 g/ha: 4 lb./A. From the text: (§1) barnyardgrass (Echinochloa crusgalli) crabgrass (Digitaria spp.) nutsedge (Cyperus esculentus)
(§2) At 2 and 4 pounds per acre:
(§3) **Bermudagrass (Cynodon dactylon)
(§4) *downy brome (Bromus tectorum) foxtail (Setaria faberii)
(§5) Johnsongrass (Sorghum halepense) […]
(§6) quackgrass (Agropyron repens)
(§7) *ryegrass (Lolium perenne)
(§8) *wild oats (Avena factua)
(§9) *yellow millet (Panicum miliaceum)
(§10) The following test procedure is employed.

The nature of test [2]: Postemergence herbicidal activity (% control) against monocot weeds. The conditions noted are these: post-emergence, 336 h, average, about two weeks after application, read-out: Herbicidal activity (% control), postemergence, monocots; for activity at 2241.7 g/ha: 2 lb./A.; for activity at 4483.4 g/ha: 4 lb./A. In kind it is in vivo.
Text: as §1, §2, §3, §4, §5, §6, §7, §8, §9, §10

A short description of test [3]: Postemergence herbicidal activity (% control) against dicot weeds. The conditions noted are these: post-emergence, 336 h.
Test [4] is described as follows: Preemergence herbicidal activity (% control) against dicot weeds. Conditions: pre-emergence, 336 h.
[5] abbreviates: read-out: Herbicidal activity (% control), postemergence, dicots, 2 lb./A., average, about two weeks after application.
Where [6] appears, read: read-out: Herbicidal activity (% control), postemergence, dicots, 4 lb./A., average, about two weeks after application.
Setting [7] is: read-out: Herbicidal activity (% control), preemergence, dicots, 2 lb./A., average, about two weeks after application.
The mark [8] stands for this setting: read-out: Herbicidal activity (% control), preemergence, dicots, 4 lb./A., average, about two weeks after application.
Where [9] appears, read: read-out: Herbicidal activity (% control), postemergence, dicots.
Where [10] appears, read: read-out: Herbicidal activity (% control), preemergence, dicots.

Turning to `CC(Oc1cc(Oc2ccc(C(F)(F)F)cc2Cl)ccc1[N+](=O)[O-])C(=O)O` (stereo not drawn) [Example 25, 2-Chloro-α,α,α-trifluoro-p-tolyl-3-(1-carboxyethoxy)-4-nitrophenyl ether], the activity at 2241.7 g/ha is 40% in test [1], 88% in test [2], 100% in test [3] (setting [5]) and 93% in test [4] (setting [7]). The activity at 4483.4 g/ha in test [1] was found to be 87%; in test [2], 97%; in test [3] (setting [6]), 100%; in test [4] (setting [8]) it was 88%.

For `Nc1cc(Oc2ccc(C(F)(F)F)cc2Cl)ccc1[N+](=O)[O-]` [Example 27], the activity at 2241.7 g/ha is 74% in test [1], 99% in test [2], 100% in test [3] (setting [5]) and 90% in test [4] (setting [7]). Moreover, the activity at 4483.4 g/ha in test [1] was 76%; in test [2] it was 82%; in test [3] (setting [6]), 100%; in test [4] (setting [8]), 98%.

For `O=[N+]([O-])c1ccc(Oc2ccc(C(F)(F)F)cc2Cl)cc1N1CCOCC1` [Example 28, 2-chloro-α,α,α-trifluoro-p-tolyl-3-morpholino-4-nitrophenyl ether], the activity at 2241.7 g/ha in test [1] came out at 79%; in test [2] it was 73%; in test [3] (setting [5]) it was 100%. The activity at 4483.4 g/ha in test [1] turned out to be 74%; in test [2], 73%; in test [3] (setting [6]), 99%; in test [4] (setting [8]), 95%.

Regarding `C#CCCOc1cc(Oc2ccc(C(F)(F)F)cc2Cl)ccc1[N+](=O)[O-]` [Example 29], the activity at 2241.7 g/ha was determined as 66% in test [1], 97% in test [2], 100% in test [3] (setting [5]) and 84% in test [4] (setting [7]). Further, the activity at 4483.4 g/ha came out at 74% in test [1], 79% in test [2], 100% in test [3] (setting [6]) and 73% in test [4] (setting [8]).

For the molecule `CC(=O)CCOc1cc(Oc2ccc(C(F)(F)F)cc2Cl)ccc1[N+](=O)[O-]` [Example 31], the activity at 2241.7 g/ha in test [1] worked out at 68%; in test [2], 68%; in test [3] (setting [5]) it was 100%; in test [4] (setting [7]), 69%. The activity at 4483.4 g/ha turned out to be 74% in test [1], 61% in test [2], 100% in test [3] (setting [6]) and 99% in test [4] (setting [8]).

On to `CC(=O)C(C)Oc1cc(Oc2ccc(C(F)(F)F)cc2Cl)ccc1[N+](=O)[O-]` (stereo not shown) [Example 32], for which the activity at 2241.7 g/ha in test [1] turned out to be 81%; in test [2], 100%. For the same molecule, the activity at 4483.4 g/ha was found to be 86% in test [1], 86% in test [2], 100% in test [3] (setting [6]) and 100% in test [4] (setting [8]).

For the molecule `CNC(=O)Oc1cc(Oc2ccc(C(F)(F)F)cc2Cl)ccc1[N+](=O)[O-]` [Example 33], the activity at 2241.7 g/ha turned out to be 79% in test [1], 65% in test [2], 100% in test [3] (setting [9]) and 74% in test [4] (setting [10]). Also, the activity at 4483.4 g/ha came to 53% in test [1], 32% in test [2], 98% in test [3] (setting [9]) and 99% in test [4] (setting [10]).

For `O=C(CCl)Nc1cc(Oc2ccc(C(F)(F)F)cc2Cl)ccc1[N+](=O)[O-]` [Example 35, 2-chloro-α,α,α-trifluoro-p-tolyl-3-chloroacetamido-4-nitrophenyl ether], the activity at 2241.7 g/ha in test [1] was found to be 60%; in test [2] it was 63%; in test [3] (setting [5]), 80%; in test [4] (setting [7]) it was 72%. The activity at 4483.4 g/ha was determined as 40% in test [1], 45% in test [2] and 98% in test [3] (setting [6]).

`O=[N+]([O-])c1ccc(Oc2ccc(C(F)(F)F)cc2Cl)cc1OCC1CO1` (stereo not shown) [Example 38]: the activity at 2241.7 g/ha in test [1] worked out at 62%; in test [2], 51%; in test [3] (setting [5]), 58%; in test [4] (setting [7]), 68%. Moreover, the activity at 4483.4 g/ha was determined as 47% in test [1], 43% in test [2], 98% in test [3] (setting [6]) and 86% in test [4] (setting [8]).

In the case of `O=[N+]([O-])c1ccc(Oc2ccc(C(F)(F)F)cc2Cl)cc1OCC(O)CO` (stereo not drawn) [Example 39, 2-chloro-α,α,α-trifluoro-p-tolyl-3-(2,3-dihydroxypropoxy)-4-nitrophenyl ether], the activity at 2241.7 g/ha in test [1] is 77%; in test [2], 61%; in test [3] (setting [5]), 100%; in test [4] (setting [7]), 80%. Further, the activity at 4483.4 g/ha in test [1] came to 65%; in test [2], 64%; in test [3] (setting [6]) it was 98%; in test [4] (setting [8]), 99%.

As to `CCCN(CCC)c1cc(Oc2ccc(C(F)(F)F)cc2Cl)ccc1[N+](=O)[O-]` [Example 41], the activity at 2241.7 g/ha in test [1] was determined as 84%; in test [2], 56%; in test [3] (setting [5]), 94%; in test [4] (setting [7]), 62%. Moreover, the activity at 4483.4 g/ha in test [1] stood at 60%; in test [2], 71%; in test [3] (setting [6]), 95%; in test [4] (setting [8]), 96%.

Turning to `CS(=O)(=O)CCOc1cc(Oc2ccc(C(F)(F)F)cc2Cl)ccc1[N+](=O)[O-]` [Example 42], the activity at 2241.7 g/ha in test [1] worked out at 83%; in test [2], 63%; in test [3] (setting [5]), 88%; in test [4] (setting [7]) it was 60%. The activity at 4483.4 g/ha in test [1] stood at 62%; in test [2] it was 38%; in test [3] (setting [6]), 98%; in test [4] (setting [8]), 80%.

As to `CN(CCO)c1cc(Oc2ccc(C(F)(F)F)cc2Cl)ccc1[N+](=O)[O-]` [Example 43], the activity at 2241.7 g/ha in test [1] turned out to be 99%; in test [2], 61%; in test [3] (setting [5]) it was 80%; in test [4] (setting [7]), 100%. Besides, the activity at 4483.4 g/ha was found to be 0% in test [1], 2% in test [2], 47% in test [3] (setting [6]) and 48% in test [4] (setting [8]).

For `CNC(=O)Nc1cc(Oc2ccc(C(F)(F)F)cc2Cl)ccc1[N+](=O)[O-]` [Example 44], the activity at 2241.7 g/ha is 0% in test [1], 7% in test [2], 10% in test [3] (setting [5]) and 17% in test [4] (setting [7]). Moreover, the activity at 4483.4 g/ha in test [1] stood at 66%; in test [2], 60%; in test [3] (setting [6]), 98%; in test [4] (setting [8]), 96%.

With `CCSC(=O)Nc1cc(Oc2ccc(C(F)(F)F)cc2Cl)ccc1[N+](=O)[O-]` [Example 45], the activity at 2241.7 g/ha turned out to be 68% in test [1], 53% in test [2], 78% in test [3] (setting [5]) and 77% in test [4] (setting [7]). Besides, the activity at 4483.4 g/ha in test [1] is 13%; in test [2], 17%; in test [3] (setting [6]) it was 88%; in test [4] (setting [8]), 58%.

Regarding `CCSC(=O)N(C(=O)SCC)c1cc(Oc2ccc(C(F)(F)F)cc2Cl)ccc1[N+](=O)[O-]` [Example 46], the activity at 2241.7 g/ha in test [1] is 34%; in test [2], 0%; in test [3] (setting [5]) it was 4%; in test [4] (setting [7]), 87%. The activity at 4483.4 g/ha in test [1] turned out to be 0%; in test [2] it was 0%; in test [3] (setting [6]) it was 30%; in test [4] (setting [8]) it was 20%.

Turning to `N#Cc1cc(Oc2ccc(C(F)(F)F)cc2Cl)ccc1[N+](=O)[O-]` [Example 47, 2-Chloro-α,α,α-trifluoro-p-tolyl-3-cyano-4-nitrophenyle ther], the activity at 2241.7 g/ha came to 80% in test [1], 24% in test [2] and 84% in test [3] (setting [5]). Moreover, the activity at 4483.4 g/ha turned out to be 61% in test [1], 11% in test [2], 72% in test [3] (setting [6]) and 40% in test [4] (setting [8]).

As for `CC(Oc1cc(Oc2ccc(C(F)(F)F)cc2Cl)ccc1[N+](=O)[O-])C(N)=O` (stereo not drawn) [Example 51, 2-chloro-α,α,α-trifluoro-p-tolyl-3-(1-carbamoylethoxy)-4-nitrophenyl ether], the activity at 2241.7 g/ha was found to be 96% in test [1], 86% in test [2], 98% in test [3] (setting [5]) and 100% in test [4] (setting [7]). The activity at 4483.4 g/ha was 79% in test [1], 75% in test [2], 100% in test [3] (setting [6]) and 100% in test [4] (setting [8]).
